The values below come from publication PMC5338256, “D-form KLKLLLLLKLK-NH2 peptide exerts higher antimicrobial properties than its L-form counterpart via an association with bacterial cell wall components” (Scientific Reports, 2017).

Converted amounts (≈) assume the structure as drawn. Non-standard residues stand in square brackets, D forms with d. Residues, ends and D or L forms follow the SMILES beside them.

The nature of experiment [1]: Calcein leakage from liposomes. The class given is biochemical. As to conditions: 10 min at room temperature, pH 6.0, triplicate assays. Here is the method:
Liposomes were prepared as previously described with some modifications. S. aureus-mimetic liposomes[17][26] and mammalian-mimetic liposomes[27] were prepared by combining phospholipid mixtures (cardiolipin: L-α-phosphatidyl-DL-glycerol = 1:3 (mol/mol)) and 2-dioleoyl-sn-glycero-3-phosphocholine:1,2-dioleoyl-sn-glycero-3-phosphoethanolamine:Cholesterol = 4:2:3 (mol/mol/mol)), respectively. A 50 mM calcein solution was prepared by mixing 100 mg calcein with 3.1 ml of solution A (0.3 ml of 1 M Tris-HCl (pH 7.4), 0.9 ml of 5 M sodium hydroxide, and 13.8 ml of water). The liposomes were prepared by adding 1 ml of calcein solution to the dried lipid mixtures, followed by vortexing for 10 min at room temperature. The liposome solution (1 ml) was centrifuged at 3000 × g for 10 min, and the precipitate was resuspended in 1 ml of 20 mM Tris-HCl (pH 7.4) containing 150 mM sodium chloride. The centrifugation step was repeated two more times. Finally, the precipitate was suspended in 100 μl of 20 mM Tris-HCl (pH 7.4) containing 150 mM sodium chloride.
Liposome suspensions were prepared by diluting of 1 μl of liposomes into 40 ml of 10 mM phosphate buffer (pH6.0) containing 130 mM sodium chloride. Peptides were serially diluted in 10 mM phosphate buffer (pH 6.0) containing 130 mM sodium chloride and 1% dimethyl sulfoxide. […]

Experiment [2] has as its system E. coli. The experiment is classed as cell-based, Escherichia coli W3110 (NBRC12713). As to conditions: pH 6. Here is the method:
(§1) S. aureus (NBRC100910), E. coli W3110 (NBRC12713), E. hirae (NBRC3181), C. albicans (NBRC1385), and S. Typhimurium 14028s (ATCC14028)[2] were used in this study. S. aureus, E. coli, and S. Typhimurium were grown at 37 °C with aeration in Muller-Hinton II medium (BD Biosciences). E. hirae was grown at 37 °C in LB medium (Nacalai Tesque, Inc.) containing 0.5% glucose (w/v). C. albicans was grown at room temperature with aeration in YM medium (BD Biosciences). All experiments were conducted using bacterial cells and C. albicans in the logarithmic-phase of growth.
(§2) Bacterial suspensions in Muller-Hinton II medium were adjusted to an optical density of 550 nm (OD550) = 0.0011. C. albicans suspensions in YM medium were adjusted to OD650 = 0.033. Peptides were serially diluted in 10 mM phosphate buffer (pH 6.0) containing 130 mM sodium chloride, 0.2% bovine serum albumin, and 2.56% dimethyl sulfoxide. The peptide solution (100 μl) was mixed with 100 μl of bacteria or C. albicans suspensions. Bacterial cultures were incubated for one day at 37 °C. C. albicans cultures were incubated for two days at room temperature. Cell growth was monitored optically and the MIC was determined.

Experiment [3] deals with S. aureus. As to the kind of experiment: Assay for antimicrobial activity (10 min exposure, CFU). The experiment is classed as cell-based, Staphylococcus aureus (NBRC100910). Particulars: for antimicrobial activity (CFU), D-form compared with L-form: 10 min at 37 °C. Here is the method: as §1
Bacteria and C. albicans were suspended in growth medium. Peptides suspended in dimethyl sulfoxide were serially diluted in 10 mM phosphate buffer (pH 6.0) containing 130 mM sodium chloride, 0.2% bovine serum albumin as described previously. In order to examine the effects of bovine serum albumin on the assay, 10 mM phosphate buffer (pH 6.0) containing 130 mM sodium chloride, was used for the dilution of peptides. Peptide solution (500 μl) was added to 500 μl of bacteria suspensions and then the mixture was incubated at 37 °C for 10 min. In order to examine the effects of culture medium components on the assay, bacteria suspension was prepared with 10 mM phosphate buffer (pH 6.0) containing 130 mM sodium chloride. Alternatively, 500 μl of peptide solution was added to 500 μl of C. albicans suspensions and the mixture was incubated at room temperature for 10 min. The inhibitory effects of the bacterial components were analyzed by incubating 450 μl of S. aureus suspension with 500 μl of peptide solution plus 50 μl of inhibitor samples at 37 °C for 10 min. Then, the peptide/bacteria suspensions were diluted and plated onto LB agar, LB agar containing 0.5% glucose, or YM agar. After cultivation of the plates, colony forming units (CFU) in the peptide/bacteria suspension were calculated based on the average of triplicate plates.

In experiment [4] the test system is C. albicans. The experiment is classed as cell-based, Candida albicans (NBRC1385). Here is the method:
as §1, §2

As for `CC(C)C[C@@H](NC(=O)[C@H](N)CCCCN)C(=O)N[C@H](CCCCN)C(=O)N[C@H](CC(C)C)C(=O)N[C@H](CC(C)C)C(=O)N[C@H](CC(C)C)C(=O)N[C@H](CC(C)C)C(=O)N[C@H](CC(C)C)C(=O)N[C@H](CCCCN)C(=O)N[C@H](CC(C)C)C(=O)N[C@H](CCCCN)C(N)=O` [D-form KLKLLLLLKLK-NH2] (H-[dK][dL][dK][dL][dL][dL][dL][dL][dK][dL][dK]-NH2; N-terminus assumed), the “calcein release from liposomes” value in experiment [1] (S. aureus-mimetic liposomes (cardiolipin:phosphatidylglycerol 1:3)) was “released calcein”; in experiment [1] (mammalian-mimetic liposomes (phosphatidylcholine:phosphatidylethanolamine:cholesterol 4:2:3)), “neither D-form nor L-form KLKLLLLLKLK-NH2 was able to release calcein”. The MIC in experiment [2] came out at 8 µg/mL (≈ 6.05 µM); in experiment [4], 32 µg/mL (≈ 24.2 µM). In experiment [3] (10 min, in the absence of culture medium and bovine serum albumin), the “antimicrobial activity relative to the standard assay condition” value is on record as “lower”. Further, the “antimicrobial activity (CFU), D-form compared with L-form” value is listed as “higher antimicrobial activity” in experiment [3] (in the absence of culture medium and/or bovine serum albumin); “higher antimicrobial activity” in experiment [3] (standard assay with culture medium and 0.2% BSA, triplicate plates). The “peptide concentration at which D-form and L-form displayed similar antimicrobial activity” value in experiment [3] (10 min exposure) is 1.9 µg/mL.

In general, MIC refers to the smallest concentration in the dilution series that meets the test's criterion for growth inhibition. Lower therefore signals a more susceptible organism.
